Assay results published in PMC9775433 (Cancers, 2022).
Where “and” joins values, the source holds several entries; their conditions need not be identical. Equal values may be shown once. Read-outs that look alike come from different tables or passages of the source.

Legend:
[1] = cited from earlier work
[2] = Tumor drug concentration in tumor needle biopsy at day 17 (LC-MS-MS); format: in vivo, human; details: individual patient; for concentration at 17 day: human, tumor, oral, Tumor - Sunitinib concentration
Method: All tissue samples were immediately snap frozen (within 1 min) in liquid nitrogen and cryopreserved at −80 °C until the day of analysis.
Tissue biopsies were weighed accurately before analysis. Tissue homogenate was prepared by using a mechanical homogenizer. The tumor tissue was homogenized with the precellys lysing kit (bertin instruments®) in the Roche MagNA lyzer®. […] Tissue homogenate samples were directly analyzed.
Supplementary data S2 – Methods (Details)
samples; using a validated liquid chromatography–tandem mass spectrometry (LC-MS-MS).
The system consisted of an Acquity H‐Class UPLC system, coupled to a Xevo TQ‐S micro
tandem mass spectrometer. […]

CSNK1D = tested on: CSNK1D; set-up: method as in earlier work; details: cited from earlier work
Food effect cohort = format: in vivo, human; details: 700 mg Q2W, fed versus fasted
TNIK = tested on: TNIK; set-up: method as in earlier work; details: cited from earlier work
[3] = mice; cited from earlier work
RASSF3 = tested on: RASSF3; set-up: method as in earlier work; details: cited from earlier work
[4] = CAM-assay, cited from earlier work
Ki67 = test: Immunohistochemistry of tumor biopsies, Ki67 (tumor cell proliferation); format: in vivo, human; details: 10 paired tumor biopsies, day 17
Method: (§1) Immunohistochemistry: Immunohistochemical staining was performed on 3–5 μm thick sections of the (freeze) tumor biopsies for CD3, CD31 and Ki67 according to standard methods (see Supplementary Data S2). Morphological characteristics were assessed in hematoxylin-eosin (H&E)-stained tissue sections. Evaluation of staining was performed by four investigators using light microscopy of serial tissue sections. […] Semi-quantification of CD31 staining was scored manually by a pathologist. The number of cells positive for CD3, CD31 was expressed as an estimated proportion of the total number of cells. […]
(§2) Finally, staining was
(§3) visualized with 3,3-diamino-benzidine-tetra hydrochloride (DAB), 0.3 mg/ml in 1 ml PBS
(§4) with 0.3 % H2O2. All slides were counterstained with hematoxylin.

TEX264 = tested on: TEX264; set-up: method as in earlier work; details: cited from earlier work
FGFR-1 = tested on: FGFR-1; set-up: method as in earlier work; details: cited from earlier work
RASSF5 = tested on: RASSF5; set-up: method as in earlier work; details: cited from earlier work
refractory solid tumors [5] = tested on: refractory solid tumors; set-up: method as in PMID 30586316; details: cited from earlier work
[6] = in vivo; cited from earlier work
AAK1 = tested on: AAK1; set-up: method as in earlier work; details: cited from earlier work
CD31 = test: Immunohistochemistry of tumor biopsies, CD31 (microvessel density); format: in vivo, human; details: 10 paired tumor biopsies, day 17
Method: as §1, §2, §3, §4

CD3 = test: Immunohistochemistry of tumor biopsies, CD3 (T-cell infiltration); format: in vivo, human; details: 10 paired tumor biopsies
Method: as §1, §2, §3, §4

PHKG2 = tested on: PHKG2; set-up: method as in earlier work; details: cited from earlier work
LATS1 = tested on: LATS1; set-up: method as in earlier work; details: cited from earlier work
refractory solid tumors [7] = test: Phase I trial outcome (PFS, OS); format: in vivo, human; details: individual patient
Method: All patients provided written informed consent before entering the study. The study was conducted in accordance with the Declaration of Helsinki and with the principles of the International Conference on Harmonization Guidelines for Good Clinical Practice. The study protocol was approved by the local institutional board and an independent Ethics Committee.
Patients continued treatment until progression, intolerance, or withdrawal of consent. The primary outcomes of the phase I clinical trial were described previously.
Efficacy was assessed in patients who completed at least two weeks of treatment. […] Statistical significance was set at p < 0.05. All statistical analyses were performed in SPSS, version 25.

[8] = standard daily schedule, three patients

CCN(CC)CCNC(=O)c1c(C)[nH]c(/C=C2\C(=O)Nc3ccc(F)cc32)c1C [sunitinib]
Tumor - Sunitinib concentration ([2]; 300 mg O1W): 2373 µg/L and 19394 µg/L and 1332 µg/L and 2343 µg/L and 1738 µg/L and 9841 µg/L and 24517 µg/L and 25618 µg/L and 2008 µg/L and 18802 µg/L and 539 µg/L and 2318 µg/L
Tumor - Sunitinib concentration ([2]; 700 mg O2W): 24802 µg/L and 2377 µg/L and 49083 µg/L and 16359 µg/L and 12244 µg/L and 8913 µg/L and 51914 µg/L and 2247 µg/L
concentration at 17 day ([2]; 400 mg, 400 mg O2W): 987 ng/mL
concentration at 17 day ([2]; 800 mg, 800 mg O2W): 228 ng/mL
effect of food on oral uptake (Food effect cohort): did not affect
IC50 (RASSF3): 800 nM
IC50 (TEX264): 990 nM
IC50 (RASSF5): 1130 nM
OS range (refractory solid tumors [5]; 300 mg Q1W): 1.2–15 months
PFS range (refractory solid tumors [5]; 300 mg Q1W): 0.7–11 months
median OS (refractory solid tumors [5]; 300 mg Q1W): 3.1 months
median PFS (refractory solid tumors [5]; 300 mg Q1W): 2.2 months
OS range (refractory solid tumors [5]; 700 mg Q2W): 1.3−19.6 months
PFS range (refractory solid tumors [5]; 700 mg Q2W): 0.5–11 months
median OS (refractory solid tumors [5]; 700 mg Q2W): 4.9 months
median PFS (refractory solid tumors [5]; 700 mg Q2W): 2.6 months
OS range (refractory solid tumors [5]; all patients): 0.8–27 months
PFS range (refractory solid tumors [5]; all patients): 0.5–11 months
median overall survival (OS) (refractory solid tumors [5]; all patients): 4.9 months
median progression free survival (PFS) (refractory solid tumors [5]; all patients): 2.5 months
apparent volume of distribution [6]: 2230 L
microvessel density (MVD), pre- versus on treatment biopsies (CD31): no significant differences
T cell infiltration (CD3 staining) after 17 days of treatment (CD3; baseline 8.6%): 12.2%
OS (refractory solid tumors [7]; 200 mg O1W): 119 days and 134 days
PFS (refractory solid tumors [7]; 200 mg O1W): 77 days and 82 days
OS (refractory solid tumors [7]; 300 mg O2W): 78 days and 76 days
PFS (refractory solid tumors [7]; 300 mg O2W): 58 days and 61 days
OS (refractory solid tumors [7]; 400 mg O1W): 26 days and 261 days and 817 days and 151 days and 132 days and 237 days and 169 days
PFS (refractory solid tumors [7]; 400 mg O1W): 23 days and 239 days and 68 days and 51 days and 160 days
OS (refractory solid tumors [7]; 400 mg O2W): 185 days and 23 days and 194 days
PFS (refractory solid tumors [7]; 400 mg O2W): 57 days
OS (refractory solid tumors [7]; 500 mg O2W): 257 days and 427 days
PFS (refractory solid tumors [7]; 500 mg O2W): 57 days and 176 days and 54 days
OS (refractory solid tumors [7]; 600 mg O2W): 353 days and 342 days
PFS (refractory solid tumors [7]; 600 mg O2W): 56 days and 331 days and 93 days
OS (refractory solid tumors [7]; 700 mg O2W): 86 days and 150 days and 428 days and 170 days and 91 days and 57 days and 142 days and 40 days and 526 days and 232 days and 125 days and 486 days and 400 days and 169 days and 74 days and 419 days and 148 days and 184 days and 333 days and 596 days and 93 days
PFS (refractory solid tumors [7]; 700 mg O2W): 56 days and 77 days and 245 days and 170 days and 14 days and 57 days and 26 days and 168 days and 64 days and 60 days and 45 days and 334 days and 197 days and 318 days and 84 days
OS (refractory solid tumors [7]; 800 mg O2W): 89 days and 32 days and 45 days and 243 days and 63 days and 62 days
PFS (refractory solid tumors [7]; 800 mg O2W): 56 days and 194 days and 42 days
